Measurements published in article PMC7481357, “N-terminal Myristoylation Enhanced the Antimicrobial Activity of Antimicrobial Peptide PMAP-36PW” (Frontiers in Cellular and Infection Microbiology, 2020).
Residues, ends and D or L forms follow the SMILES beside them. *: point of attachment. Myristoyl = CCCCCCCCCCCCCC(=O)*

How the values were obtained:
[1] = test system: S. aureus ATCC 25923; test: Inhibition zone assay (disk diffusion); format: cell-based, Staphylococcus aureus; parameters: key: +, means the peptide has antibacterial activity; conditions: disk 10 μg peptide, 18 h at 37°C, * P < 0.05, ** P < 0.01 vs PMAP-36PW
Protocol: The inhibition zone assay was performed through the disk diffusion to evaluate the antimicrobial activity of Myr-36PW in vitro (Dunne et al., [2017]). The four above-mentioned bacterial strains were used as experimental strains, with L. monocytogenes CICC 21634 cultured in BHI medium, and P. aeruginosa GIM 1.551 cultured in TSB medium. The bacterial cells were cultured for 12 h at 37°C in the appropriate medium, and the bacterial cell suspension was spread on LB agar. The disks containing 10 μg of peptides (1 μg/μL) were attached to the solid medium and incubated at 37°C for 18 h. Finally the diameter of the inhibition zone was measured.

[2] = test system: S. aureus ATCC 25923 and P. aeruginosa GIM 1.551; test: Thermal stability testing (boiling, then inhibition zone assay); format: cell-based, Staphylococcus aureus; Pseudomonas aeruginosa; conditions: boiled 120 min, 10 μg peptide, n = 5
Protocol: For thermal stability analysis, the Myr-36PW and peptides were boiled for 10, 20, 30, 40, 50, 60, 90, and 120 min as reported (Ebbensgaard et al., [2015]) with unboiled peptides as controls. Inhibition zone assay was performed against S. aureus ATCC 25923 and P. aeruginosa GIM 1.551. The inhibition zone diameters of peptides (10 μg, 1 μg/μL) were measured after incubation for 18 h at 37°C, and the inhibition curve was drawn.
Figure 3 Thermal stability determination of Myr-36PW by boiling. Thermal stability test of Myr-36PW and its analogs by boiling in different times (0, 10, 20, 30, 40, 50, 60, 90, and 120 min) via disk diffusion method. (A) (S. aureus ATCC 25923) and (B) (P. aeruginosa GIM 1.551) show the thermal stability curves of PMAP-36, PMAP-36PW, and Myr-36PW. The diameter of the standard disk is 6 mm. Data represent the mean ± SD (n = 5).

## CCCCCCCCCCCCCC(=O)NCC(=O)NCC(=O)N[C@@H](CCCNC(=N)N)C(=O)N[C@@H](Cc1ccccc1)C(=O)N[C@@H](CCCNC(=N)N)C(=O)N[C@@H](CCCNC(=N)N)C(=O)N[C@@H](CC(C)C)C(=O)N[C@@H](CCCNC(=N)N)C(=O)N[C@@H](CCCCN)C(=O)N[C@@H](CCCCN)C(=O)N[C@H](C(=O)N[C@@H](CCCNC(=N)N)C(=O)N[C@@H](CCCCN)C(=O)N[C@@H](CCCNC(=N)N)C(=O)N[C@@H](CC(C)C)C(=O)N[C@@H](CCCCN)C(=O)N[C@@H](CCCCN)C(=O)N[C@H](C(=O)NCC(=O)N[C@@H](CCCCN)C(=O)N[C@H](C(=O)N[C@@H](CC(C)C)C(=O)N[C@@H](CCCCN)C(=O)N[C@@H](Cc1c[nH]c2ccccc12)C(=O)N[C@H](C(=O)N[C@@H](Cc1c[nH]c2ccccc12)C(=O)N[C@@H](Cc1c[nH]c2ccccc12)C(=O)N[C@H](C(=O)N[C@H](C(=O)NCC(=O)N[C@@H](CO)C(=O)N[C@H](C(=O)N1CCC[C@H]1C(=O)N[C@@H](CC(C)C)C(=O)NCC(=O)N[C@@H](CS)C(=O)NCC(=O)O)[C@@H](C)CC)C(C)C)[C@@H](C)CC)[C@@H](C)CC)C(C)C)[C@@H](C)CC)[C@@H](C)O [Myr-36PW] (Myristoyl-GGRFRRLRKKTRKRLKKIGKVLKWIWWIVGSIPLGCG-OH; C-terminus assumed)
[1]
  In vitro antibacterial activity (disk diffusion): +**
[2]
  Antimicrobial activity after boiling (thermal stability): retaining high bacterial inhibition
